{
  "source": "patent US11064704B2",
  "about": "“Natural product formulations with improved residual insect repellent/deterrent activity” (University of Mississippi, priority 2016, dated 2021)",
  "tested_on": "mosquitoes",
  "test": "in vivo direct skin application bioassay",
  "settings": "12.5% application rate",
  "experimental": "Direct skin application bioassays were conducted by using a powder-free latex glove (Diamond Grip, Microflex Corporation, Reno, Nev.). An opening of 3×4 cm was cut through the glove to fit on dorsal surface of the hand (FIG. 1). After wearing the glove, a wristband was used to avoid the biting on the hand near the border of the glove. Approximately, 500 (±5%), consisting primarily of females were transferred to a test cage (45×45×45 cm) using an aspirator. A series of dosages were tested to determine MED for repellency as well as residual activity against mosquitoes. A single test consisted of covering the hand of a volunteer with a powder-free latex glove and treating 12 cm^2 surface area, cut through the glove, on dorsal surface of the hand. Marked skin surface area was treated with the test compound in 50 μl of total volume. Because of constrain of man power, only one volunteer who was provided with a written informed consent participated in this study. A protocol approved by the University of Mississippi Human Use Institutional Review Board (IRB protocol #15-070) was followed.\nThe test started when the hand treated (3×4 cm area cut through the glove on the dorsal surface) with a test compound was inserted into the mosquito cage. […] Any treatment with […] females biting during 1 min test period was considered as “passed” whereas a treatment with ≥5 bites out of 500 mosquitoes was considered as “failed”. In case of passing the next lower and in case of failure next higher serial dose was tested to reach MED. Additionally, data on the residual repellent activity was recorded by exposing the treatments to the females after every 30 minutes until the treatment failed. Carrot essential oil, carotol and DEET and the mixtures were tested.\nDirect skin application bioassays were conducted by using a powder-free latex glove (Diamond Grip™, Microflex Corporation, Reno, Nev.). An opening of 3×4 cm was cut through the glove to fit on the dorsal surface of the hand. After donning the glove, a wristband was used to avoid biting on the hand near the border of the glove. Approximately 500 (±5%) mosquitoes, consisting primarily of females, were transferred to a test cage (45×45×45 cm) using an aspirator. A series of dosages were tested to determine MED for repellency as well as residual activity against mosquitoes.\nA single test consisted of covering the hand of a volunteer with a powder-free latex glove and treating a 12 cm^2 surface area, cut through the glove, on the dorsal surface of the hand. Marked skin surface area was treated with the test compound in 50 μl of total volume. Because of constraints of man power, only one volunteer who was provided with a written informed consent participated in this study. A protocol approved by the University of Mississippi Human Use Institutional Review Board (IRB Protocol #15-070) was followed.\nThe test started when the hand treated (3×4 cm area cut through the glove on the dorsal surface) with a test compound was inserted into the mosquito cage. […] Any treatment with ≤5 females biting during the 1 min test period was considered as “passed”, whereas a treatment with ≥5 bites out of 500 mosquitoes was considered as “failed”. In case of passing, the next lower, and in case of failure, the next higher, serial dose was tested to reach MED. Additionally, data on the residual repellent activity were recorded by exposing the treatments to the females after every 30 minutes until the treatment failed. Carrot seed essential oil, carotol, geranium and lemon Eucalyptus essential oils, DEET, picaridin and the mixtures were tested.",
  "data": [
    {"smiles": "CCCCCCCCCCC(=O)O", "note": "[Undecanoic acid, undecanoic acid, reference compound]", "values": [
      {"measurement": "residual activity: time post application at which MED reached/crossed", "value": 1.5, "unit": "h"}
    ]}
  ]
}
